In patent US20070049564A1 (Wyeth, priority 2005, published 2007):
Where two headings read alike, the source gives them in different places.

What was measured:
[1] = tested on: E. coli GC 2232; experiment: MIC, broth microdilution; details: Escherichia coli
Method: (§1) Antimicrobial susceptibility testing. The in vitro activities of the antibiotics are determined by the broth microdilution method as recommended by the National Committee for Clinical Laboratory Standards (NCCLS) (1). Mueller-Hinton II broth (MHBII)(BBL Cockeysville, Md.) is the medium employed in the testing procedures. Microtiter plates containing serial dilutions of each antimicrobial agent are inoculated with each organism to yield the appropriate density (10^5 CFU/ml) in a 100 μl final volume. The plates are incubated for 18-22 hours at 35° C. in ambient air.
Representative compounds were first incubated in mouse serum for an hour prior to the in vitro testing against a panel of selected gram-positive and gram-negative bacteria strains. All compounds were also pre-incubated in water for an hour prior to testing as control. Representative compounds of Formula I were incubated in human serum prior to MIC determination.

[2] = tested on: E. coli GC 2270; experiment: MIC, broth microdilution; details: Escherichia coli
[3] = tested on: E. coli GC 2271; experiment: MIC, broth microdilution; details: Escherichia coli
[4] = tested on: E. coli GC 4559; experiment: MIC, broth microdilution; details: Escherichia coli
[5] = tested on: E. coli GC 3226; experiment: MIC, broth microdilution; details: Escherichia coli
[6] = tested on: E. coli GC 1073; experiment: MIC, broth microdilution; details: Escherichia coli
[7] = tested on: P. aeruginosa GC 2214; experiment: MIC, broth microdilution; details: Pseudomonas aeruginosa
[8] = tested on: S. aureus GC 4536; experiment: MIC, broth microdilution; details: Staphylococcus aureus
[9] = tested on: S. aureus GC 2216; experiment: MIC, broth microdilution; details: Staphylococcus aureus
[10] = tested on: S. aureus GC 6335; experiment: MIC, broth microdilution; details: Staphylococcus aureus
[11] = tested on: S. aureus GC 6469; experiment: MIC, broth microdilution; details: Staphylococcus aureus
[12] = tested on: E. faecalis GC 2265; experiment: MIC, broth microdilution; details: Enterococcus faecalis
[13] = tested on: E. faecalis GC 2242; experiment: MIC, broth microdilution; details: Enterococcus faecalis
[14] = tested on: E. faecium GC 2243; experiment: MIC, broth microdilution; details: Enterococcus faecium
Method: as §1
Representative compounds were first incubated in mouse serum for an hour prior to the in vitro testing against a panel of selected gram-positive and gram-negative bacteria strains. All compounds were also pre-incubated in water for an hour prior to testing as control.

[15] = tested on: S. pneumoniae+ GC 4465; experiment: MIC, broth microdilution; details: Streptococcus pneumoniae
[16] = tested on: S. pyogenes GC 4563; experiment: MIC, broth microdilution; details: Streptococcus pyogenes
[17] = tested on: S. agalactiae GC 4564; experiment: MIC, broth microdilution; details: Streptococcus agalactiae
[18] = tested on: c. albicans GC 3066; experiment: MIC, broth microdilution
[19] = tested on: E. coli; experiment: Range of MIC for E. coli strains; details: Escherichia coli
[20] = GC2232, pre-incubation in human serum
[21] = GC2232, pre-incubation in mouse serum
[22] = GC2232, pre-incubation in water
[23] = GC2270, pre-incubation in human serum
[24] = GC2270, pre-incubation in mouse serum
[25] = GC2270, pre-incubation in water
[26] = GC2271, pre-incubation in human serum
[27] = GC2271, pre-incubation in mouse serum
[28] = GC2271, pre-incubation in water
[29] = GC4559, pre-incubation in human serum
[30] = GC4559, pre-incubation in mouse serum
[31] = GC4559, pre-incubation in water
[32] = GC3226, pre-incubation in human serum
[33] = GC3226, pre-incubation in mouse serum
[34] = GC3226, pre-incubation in water
[35] = GC1073, pre-incubation in human serum
[36] = GC1073, pre-incubation in mouse serum
[37] = GC1073, pre-incubation in water
[38] = GC2214, pre-incubation in human serum
[39] = GC2214, pre-incubation in mouse serum
[40] = GC2214, pre-incubation in water
[41] = GC4536, pre-incubation in human serum
[42] = GC4536, pre-incubation in mouse serum
[43] = GC4536, pre-incubation in water
[44] = GC2216, pre-incubation in human serum
[45] = GC2216, pre-incubation in mouse serum
[46] = GC2216, pre-incubation in water
[47] = GC6335, pre-incubation in human serum
[48] = GC6335, pre-incubation in mouse serum
[49] = GC6335, pre-incubation in water
[50] = GC6469, pre-incubation in human serum
[51] = GC6469, pre-incubation in mouse serum
[52] = GC6469, pre-incubation in water
[53] = GC2265, pre-incubation in human serum
[54] = GC2265, pre-incubation in mouse serum
[55] = GC2265, pre-incubation in water
[56] = GC2242, pre-incubation in human serum
[57] = GC2242, pre-incubation in mouse serum
[58] = GC2242, pre-incubation in water
[59] = GC2243, pre-incubation in human serum
[60] = GC2243, pre-incubation in mouse serum
[61] = GC2243, pre-incubation in water
[62] = GC4563, pre-incubation in human serum
[63] = GC4563, pre-incubation in mouse serum
[64] = GC4563, pre-incubation in water
[65] = GC4564, pre-incubation in human serum
[66] = GC4564, pre-incubation in mouse serum
[67] = GC4564, pre-incubation in water
[68] = 20 h, read-out: Range of MIC, E. coli (Mouse Serum)
[69] = read-out: Minimum inhibitory concentration (MIC), E. coli (Human Serum)

Measured: MIC

CCCCC(=O)OCOC(=O)N(CC(=O)Nc1cc(N(C)C)c2c(c1O)C(=O)C1=C(O)[C@]3(O)C(=O)C(C(N)=O)=C(O)[C@@H](N(C)C)[C@@H]3C[C@@H]1C2)C(C)(C)C [Example 61, ({[(2-{[(5aR,6aS,7S,10aS)-9-(aminocarbonyl)-4,7-bis(dimethylamino)-1,8,10a,11-tetrahydroxy-10,12-dioxo-5,5a,6,6a,7,10,10a,12-octahydrotetracen-2-yl]amino}-2-oxoethyl)(tert-butyl)amino]carbonyl}oxy)methyl pentanoate]
4 µg/mL: [1]; [20] | [2]; [23] | [3]; [26]
32 µg/mL: [5]; [34] | [6]; [37]
>64 UG/ML: [18]; pre-incubation in human serum | [18]; pre-incubation in mouse serum
0.5 to 1 µg/mL: [19]; [68]
2 µg/mL: [11]; [52] | [12]; [53] | [12]; [55] | [13]; [56] | [13]; [58]
64 µg/mL: [4]; [31]
4 to 32 µg/mL: [19]; [69]
0.25 µg/mL: [14]; [60] | [16]; [62] | [16]; [63] | [17]; [66] | [17]; [67]
8 µg/mL: [4]; [29] | [5]; [32] | [6]; [35] | [7]; [39]
0.5 µg/mL: [1]; [21] | [2]; [24] | [3]; [27] | [5]; [33] | [6]; [36] | [8]; [41] | [8]; [42] | [8]; [43] | [9]; [44] | [9]; [45] | [10]; [48] | [11]; [50] | [11]; [51] | [12]; [54] | [13]; [57] | [14]; [61] | [15]; pre-incubation in human serum | [15]; pre-incubation in mouse serum | [15]; pre-incubation in water | [16]; [64] | [17]; [65]
16 µg/mL: [1]; [22] | [2]; [25] | [3]; [28]
> 64 µg/mL: [7]; [38] | [7]; [40] | [18]; Candida albicans, GC3066
1 µg/mL: [4]; [30] | [9]; [46] | [10]; [47] | [10]; [49] | [14]; [59]

CN(C)c1cc(NC(=O)CN(C(=O)OCOC(=O)C2CCC2)C(C)(C)C)c(O)c2c1C[C@H]1C[C@H]3[C@H](N(C)C)C(O)=C(C(N)=O)C(=O)[C@@]3(O)C(O)=C1C2=O [Example 62, ({[(2-{[(5aR,6aS,7S,10aS)-9-(aminocarbonyl)-4,7-bis(dimethylamino)-1,8,10a,11-tetrahydroxy-10,12-dioxo-5,5a,6,6a,7,10,10a,12-octahydrotetracen-2-yl]amino}-2-oxoethyl)(tert-butyl)amino]carbonyl}oxy)methyl cyclobutanecarboxylate]
> 64 µg/mL: [7]; [38] | [7]; [40] | [18]; Candida albicans, GC3066
16 µg/mL: [4]; [31] | [6]; [37] | [7]; [39]
0.5 µg/mL: [2]; [24] | [6]; [36] | [8]; [41] | [8]; [42] | [8]; [43] | [9]; [44] | [9]; [45] | [9]; [46] | [10]; [47] | [10]; [49] | [11]; [50] | [12]; [53] | [12]; [54] | [13]; [56] | [13]; [57] | [13]; [58] | [14]; [59] | [14]; [60] | [14]; [61] | [15]; pre-incubation in human serum | [15]; pre-incubation in water
0.25 µg/mL: [16]; [63] | [16]; [64] | [17]; [66] | [17]; [67]
>64 UG/ML: [18]; pre-incubation in human serum | [18]; pre-incubation in mouse serum
4 µg/mL: [3]; [28] | [5]; [32] | [6]; [35]
2 to 8 µg/mL: [19]; [69]
1 µg/mL: [1]; [21] | [3]; [27] | [4]; [30] | [5]; [33] | [10]; [48] | [11]; [51] | [11]; [52] | [12]; [55] | [15]; pre-incubation in mouse serum
8 µg/mL: [1]; [22] | [2]; [25] | [4]; [29] | [5]; [34]
0.12 µg/mL: [16]; [62] | [17]; [65]
0.5 to 2 µg/mL: [19]; [68]
2 µg/mL: [1]; [20] | [2]; [23] | [3]; [26]

CN(C)c1cc(NC(=O)CN(C(=O)OCOC(=O)CCC2CCCCC2)C(C)(C)C)c(O)c2c1C[C@H]1C[C@H]3[C@H](N(C)C)C(O)=C(C(N)=O)C(=O)[C@@]3(O)C(O)=C1C2=O [Example 63, ({[(2-{[(5aR,6aS,7S,10aS)-9-(aminocarbonyl)-4,7-bis(dimethylamino)-1,8,10a,11-tetrahydroxy-10,12-dioxo-5,5a,6,6a,7,10,10a,12-octahydrotetracen-2-yl]amino}-2-oxoethyl)(tert-butyl)amino]carbonyl}oxy)methyl 3-cyclohexylpropanoate]
4 µg/mL: [8]; [43] | [9]; [46] | [10]; [49]
16 µg/mL: [11]; [52]
8 µg/mL: [12]; [55]
64 µg/mL: [2]; [23]
2 µg/mL: [4]; [30] | [6]; [36] | [11]; [50] | [12]; [53]
0.25 µg/mL: [14]; [59] | [14]; [60] | [17]; [65] | [17]; [66] | [17]; [67]
1 µg/mL: [1]; [21] | [5]; [33] | [8]; [41] | [8]; [42] | [9]; [44] | [9]; [45] | [10]; [47] | [10]; [48] | [11]; [51] | [12]; [54] | [13]; [56] | [13]; [57] | [13]; [58]
0.5 to 2 µg/mL: [19]; [68]
32 µg/mL: [7]; [39]
0.5 µg/mL: [2]; [24] | [3]; [27] | [14]; [61] | [15]; pre-incubation in human serum | [15]; pre-incubation in mouse serum | [15]; pre-incubation in water
>64 UG/ML: [18]; pre-incubation in human serum | [18]; pre-incubation in mouse serum
> 64 µg/mL: [1]; [20] | [1]; [22] | [2]; [25] | [3]; [26] | [3]; [28] | [4]; [29] | [4]; [31] | [5]; [32] | [5]; [34] | [6]; [35] | [6]; [37] | [7]; [38] | [7]; [40] | [18]; Candida albicans, GC3066 | [19]; read-out: Minimum inhibitory concentration (MIC), E. coli (water) | [19]; read-out: Range of MIC, E. coli (Water)
0.12 µg/mL: [16]; [62] | [16]; [63] | [16]; [64]
